A word on the IC50: it is the concentration needed to halve the response being measured. As usually defined, the melting point is the temperature of the solid-liquid transition.

One series deals with T1, HIV integrase (Human immunodeficiency virus type 1 group M subtype B, UniProt P12497, F1332H).
T1 construct: HIV integrase full length gene; made in house; host or cells: Escherichia coli BL21(DE3)
Briefly: Determination of enzyme (HIV integrase) inhibitory activity (strand transfer, microtiter plate, absorbance at 450 nm). The series is classed as biochemical, HIV (Human Immunodeficiency Virus (type 1)). Particulars: recombinant HIV integrase (F185H) expressed in E. coli; donor DNA on streptavidin plate, digoxigenin target DNA; 37° C.
For `O=C(O)c1cn(CCO)c2ccc(Cc3cccc(Cl)c3Cl)cc2c1=O` [Example 1-1, 6-(2,3-dichlorobenzyl)-1,4-dihydro-1-(2-hydroxyethyl)-4-oxo-3-quinolinecarboxylic acid], the 50% inhibitory concentration (IC50) was found to be 29 nM.

Turning to `O=C(O)c1cn([C@H](CO)CC2CCCCC2)c2ccc(Cc3cccc(Cl)c3F)cc2c1=O` [Example 4-22, (S)-6-(3-Chloro-2-fluorobenzyl)-1-[2-cyclohexyl-1-(hydroxymethyl)ethyl]-4-oxo-1,4-dihydroquinoline-3-carboxylic acid], the IC50 came to 2.9 nM.

With `CC(C)C[C@@H](CO)n1cc(C(=O)O)c(=O)c2cc(Cc3cccc(Cl)c3F)c(OC(C)C)cc21` [Example 4-23, (S)-6-(3-Chloro-2-fluorobenzyl)-1-(1-hydroxymethyl-3-methylbutyl)-7-isopropyloxy-4-oxo-1,4-dihydroquinoline-3-carboxylic acid], the IC50 came to 3.8 nM.

For the compound `CC(C)Oc1cc(Cc2cccc(Cl)c2F)cc2c(=O)c(C(=O)O)cn([C@H](CO)C(C)C)c12` [Example 4-24, (S)-6-(3-Chloro-2-fluorobenzyl)-1-(1-hydroxymethyl-2-methylpropyl)-8-isopropyloxy-4-oxo-1,4-dihydroquinoline-3-carboxylic acid], the IC50 amounted to 2.5 nM.

As for `CC(C)C[C@@H](CO)n1cc(C(=O)O)c(=O)c2cc(Cc3cccc(Cl)c3F)cc(OC(C)C)c21` [Example 4-25, (S)-6-(3-Chloro-2-fluorobenzyl)-1-(1-hydroxymethyl-3-methylbutyl)-8-isopropyloxy-4-oxo-1,4-dihydroquinoline-3-carboxylic acid], the IC50 came to 1.9 nM.

For the compound `CC(C)Oc1cc(Cc2cccc(Cl)c2F)cc2c(=O)c(C(=O)O)cn([C@H](CO)C(C)(C)C)c12` [Example 4-26, (S)-6-(3-Chloro-2-fluorobenzyl)-[2,2-dimethyl-1-(hydroxymethyl)propyl]-8-isopropyloxy-4-oxo-1,4-dihydroquinoline-3-carboxylic acid], the 50% inhibitory concentration (IC50) was determined as 1.5 nM.

Take `CC[C@H](C)[C@@H](CO)n1cc(C(=O)O)c(=O)c2cc(Cc3cccc(Cl)c3F)c(OC)cc21` [Example 4-27, 6-(3-Chloro-2-fluorobenzyl)-1-((1S,2S)-1-hydroxymethyl-2-methylbutyl)-7-methoxy-4-oxo-1,4-dihydroquinoline-3-carboxylic acid]: the 50% inhibitory concentration (IC50) worked out at 2.9 nM.

Take `CCOc1cc2c(cc1Cc1cccc(Cl)c1F)c(=O)c(C(=O)O)cn2[C@H](CO)[C@@H](C)CC` [Example 4-28, 6-(3-Chloro-2-fluorobenzyl)-7-ethoxy-1-((1S,2S)-1-hydroxymethyl-2-methylbutyl)-4-oxo-1,4-dihydroquinoline-3-carboxylic acid]: the IC50 amounted to 2.7 nM.

Turning to `CC[C@@H](CO)n1cc(C(=O)O)c(=O)c2cc(Cc3cccc(Cl)c3F)c(SC)cc21` [Example 4-29, (S)-6-(3-Chloro-2-fluorobenzyl)-1-[1-(hydroxymethyl)propyl]-7-methylsulfanyl-4-oxo-1,4-dihydroquinoline-3-carboxylic acid], the IC50 came to 4.5 nM.

Regarding `CCOc1cc2c(cc1Cc1cccc(Cl)c1F)c(=O)c(C(=O)O)cn2[C@H](CO)C(C)C` [Example 4-30, (S)-6-(3-Chloro-2-fluorobenzyl)-7-ethoxy-1-(1-hydroxymethyl-2-methylpropyl)-4-oxo-1,4-dihydroquinoline-3-carboxylic acid], the half-maximal inhibitory concentration (IC50) is 2.9 nM.

Turning to `CCOc1cc2c(cc1Cc1cccc(Cl)c1F)c(=O)c(C(=O)O)cn2[C@H](CO)C(C)(C)C` [Example 4-31, (S)-6-(3-Chloro-2-fluorobenzyl)-7-ethoxy-1-[2,2-dimethyl-1-(hydroxymethyl)propyl]-4-oxo-1,4-dihydroquinoline-3-carboxylic acid], the half-inhibitory concentration (IC50) came to 2.1 nM.

As to `COc1cc2c(cc1Cc1cccc(Cl)c1F)c(=O)c(C(=O)O)cn2[C@H](CO)C(C)(C)C` [Example 4-33, (S)-6-(3-Chloro-2-fluorobenzyl)-1-[2,2-dimethyl-1-(hydroxymethyl)propyl]-7-methoxy-4-oxo-1,4-dihydroquinoline-3-carboxylic acid], the IC50 amounted to 2 nM.

For `COc1cc(Cc2cccc(Cl)c2F)cc2c(=O)c(C(=O)O)cn([C@H](CO)C(C)(C)C)c12` [Example 4-34, (S)-6-(3-Chloro-2-fluorobenzyl)-1-[2,2-dimethyl-1-(hydroxymethyl)propyl]-8-methoxy-4-oxo-1,4-dihydroquinoline-3-carboxylic acid], the IC50 is 3.9 nM.

`CCC[C@@H](CO)n1cc(C(=O)O)c(=O)c2cc(Cc3cccc(Cl)c3F)c(OC(C)C)cc21` [Example 4-35]: the IC50 turned out to be 4.3 nM.

As to `CCC[C@@H](CO)n1cc(C(=O)O)c(=O)c2cc(Cc3cccc(Cl)c3F)c(OCC)cc21` [Example 4-36, (S)-6-(3-Chloro-2-fluorobenzyl)-7-ethoxy-1-[1-(hydroxymethyl)butyl]-4-oxo-1,4-dihydroquinoline-3-carboxylic acid], the concentration for half-maximal inhibition (IC50) was determined as 3.7 nM.

For the compound `CCOc1cc(Cc2cccc(Cl)c2F)cc2c(=O)c(C(=O)O)cn([C@H](CO)C(C)(C)C)c12` [Example 4-37, (S)-6-(3-Chloro-2-fluorobenzyl)-8-ethoxy-1-[2,2-dimethyl-1-(hydroxymethyl)propyl]-4-oxo-1,4-dihydroquinoline-3-carboxylic acid], the IC50 worked out at 1.9 nM.

As to `CCC[C@@H](CO)n1cc(C(=O)O)c(=O)c2cc(Cc3cccc(Cl)c3F)c(OC)cc21` [Example 4-38, (S)-6-(3-Chloro-2-fluorobenzyl)-1-[1-(hydroxymethyl)butyl]-7-methoxy-4-oxo-1,4-dihydroquinoline-3-carboxylic acid], the IC50 turned out to be 3.3 nM.

Take `CC[C@H](C)[C@@H](CO)n1cc(C(=O)O)c(=O)c2cc(Cc3cccc(Cl)c3F)c(OC(C)C)cc21` [Example 4-39, 6-(3-Chloro-2-fluorobenzyl)-1-((1S,2S)-1-hydroxymethyl-2-methylbutyl)-7-isopropyloxy-4-oxo-1,4-dihydroquinoline-3-carboxylic acid]: the half-inhibitory concentration (IC50) worked out at 4.1 nM.

With `CC(C)Oc1cc2c(cc1Cc1cccc(Cl)c1F)c(=O)c(C(=O)O)cn2[C@H](CO)C1CCCCC1` [Example 4-40, (S)-6-(3-Chloro-2-fluorobenzyl)-1-(1-cyclohexyl-2-hydroxyethyl)-7-isopropyloxy-4-oxo-1,4-dihydroquinoline-3-carboxylic acid], the IC50 came to 4.3 nM.

Turning to `CCOc1cc(Cc2cccc(Cl)c2F)cc2c(=O)c(C(=O)O)cn([C@H](CO)C3CCCCC3)c12` [Example 4-41, (S)-6-(3-Chloro-2-fluorobenzyl)-1-(1-cyclohexyl-2-hydroxyethyl)-8-ethoxy-4-oxo-1,4-dihydroquinoline-3-carboxylic acid], the concentration for half-maximal inhibition (IC50) came out at 2.3 nM.

In the case of `COc1cc2c(cc1Cc1cccc(Cl)c1F)c(=O)c(C(=O)O)cn2[C@H](CO)C1CCCCC1` [Example 4-42, (S)-6-(3-Chloro-2-fluorobenzyl)-1-(1-cyclohexyl-2-hydroxyethyl)-7-methoxy-4-oxo-1,4-dihydroquinoline-3-carboxylic acid], the IC50 was 2.3 nM.

With `CCOc1cc2c(cc1Cc1cccc(Cl)c1F)c(=O)c(C(=O)O)cn2[C@H](CO)C1CCCCC1` [Example 4-43, (S)-6-(3-Chloro-2-fluorobenzyl)-1-(1-cyclohexyl-2-hydroxyethyl)-7-ethoxy-4-oxo-1,4-dihydroquinoline-3-carboxylic acid], the IC50 came to 2.8 nM.

Consider `COc1cc(Cc2cccc(Cl)c2F)cc2c(=O)c(C(=O)O)cn([C@H](CO)C3CCCCC3)c12` [Example 4-44, (S)-6-(3-Chloro-2-fluorobenzyl)-1-(1-cyclohexyl-2-hydroxyethyl)-8-methoxy-4-oxo-1,4-dihydroquinoline-3-carboxylic acid], for which the IC50 was found to be 2.4 nM.

Regarding `CCOc1cc(Cc2cccc(Cl)c2F)cc2c(=O)c(C(=O)O)cn([C@H](CO)C(C)C)c12` [Example 4-45, (S)-6-(3-Chloro-2-fluorobenzyl)-8-ethoxy-1-(1-hydroxymethyl-2-methylpropyl)-4-oxo-1,4-dihydroquinoline-3-carboxylic acid], the IC50 was determined as 3.4 nM.

Regarding `COc1cc(Cc2cccc(Cl)c2F)cc2c(=O)c(C(=O)O)cn([C@H](CO)C(C)C)c12` [Example 4-46, (S)-6-(3-Chloro-2-fluorobenzyl)-1-(1-hydroxymethyl-2-methylpropyl)-8-methoxy-4-oxo-1,4-dihydroquinoline-3-carboxylic acid], the IC50 came out at 5 nM.

Take `CCC[C@@H](CO)n1cc(C(=O)O)c(=O)c2cc(Cc3cccc(Cl)c3F)cc(OC(C)C)c21` [Example 4-47, (S)-6-(3-Chloro-2-fluorobenzyl)-1-[1-(hydroxymethyl)butyl]-8-isopropyloxy-4-oxo-1,4-dihydroquinoline-3-carboxylic acid]: the 50% inhibitory concentration (IC50) came out at 2.3 nM.

For the compound `CCC[C@@H](CO)n1cc(C(=O)O)c(=O)c2cc(Cc3cccc(Cl)c3F)cc(OCC)c21` [Example 4-48, (S)-6-(3-Chloro-2-fluorobenzyl)-8-ethoxy-1-[1-(hydroxymethyl)butyl]-4-oxo-1,4-dihydroquinoline-3-carboxylic acid], the concentration for half-maximal inhibition (IC50) turned out to be 3 nM.

As to `CCC[C@@H](CO)n1cc(C(=O)O)c(=O)c2cc(Cc3cccc(Cl)c3F)cc(OC)c21` [Example 4-49, (S)-6-(3-Chloro-2-fluorobenzyl)-1-[1-(hydroxymethyl)butyl]-8-methoxy-4-oxo-1,4-dihydroquinoline-3-carboxylic acid], the concentration for half-maximal inhibition (IC50) amounted to 5.7 nM.

Turning to `CC(C)Oc1cc(Cc2cccc(Cl)c2F)cc2c(=O)c(C(=O)O)cn([C@H](CO)C3CCCCC3)c12` [Example 4-50, (S)-6-(3-Chloro-2-fluorobenzyl)-1-(1-cyclohexyl-2-hydroxyethyl)-8-isopropyloxy-4-oxo-1,4-dihydroquinoline-3-carboxylic acid], the 50% inhibitory concentration (IC50) stood at 3.1 nM.

Tested on in a further series: not given
Assay: not given
Settings: not given
For `O=C(O)c1cn(CCO)c2ccc(Cc3cccc(Cl)c3Cl)cc2c1=O` [Example 1-1, 6-(2,3-dichlorobenzyl)-1,4-dihydro-1-(2-hydroxyethyl)-4-oxo-3-quinolinecarboxylic acid], the melting point fell in the range of 247 to 249 °C.

Source of the values: patent US8232401B2 (Japan Tobacco Inc., priority 2002, dated 2012).
